Results: patent US9345742B2, “Aminostatin derivatives for the treatment of arthrosis” (MERCK PATENT GMBH, priority 2011, dated 2016)

Key:
[1] = biological target: cathepsin D isolated from the human liver (Homo sapiens (Human), UniProt P07339); test: In-vitro fluorescence assay for identification of cathepsin D inhibitors; format: biochemical; conditions: cathepsin D 1.4 nM, pH 5.5; read-out: CatD assay IC50-
Outline: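 A FRET-quenched MCA/Dnp peptide (5 μM final) was cleaved by 1.4 nM liver-derived human cathepsin D at pH 5.5 in sodium acetate buffer containing CHAPS and 1.25% DMSO. Enzyme and compound dilutions were first incubated 10 min.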

[2] = Stability in bovine synovial fluid; format: in vitro ADME; conditions: 1 μM, 48 h at 37° C.
Protocol: In order to check the stability of individual compounds, a pool of four different bovine synovial fluids is mixed. To this end, about 1 ml per SF is used. The mixture is prepared directly in a 5 ml glass vessel. The SFs are mixed thoroughly, but carefully. No air bubbles or foam should form. To this end, a vortex unit is used at the lowest speed. The compounds to be tested are tested in an initial concentration (unless required otherwise) of 1 μM. After addition of the substance, the batch is again mixed thoroughly and carefully. For visual monitoring, all SF batches are photographed, and the pictures are filed in the eLabBio file for the corresponding experiment. […] The batches are incubated in the incubator for 48 h at 37° C. and 7.5% CO2.
The sampling is carried out after the pre-agreed times (unless required otherwise, see below). 200 μl of the SF are removed from the mixture per time and transferred directly into a 0.5 ml “low-binding” Eppendorf vessel. “Low-binding” Eppendorf vessels are used in order to minimise interaction of the substances with the plastic of the vessels. 200 μl of acetonitrile have already been introduced into the Eppendorf vessel, so that a 1+1 mixture of the SF forms thereafter. This simplifies the subsequent analysis, but precipitation of protein may occur immediately after addition of the SF. This should be noted on the protocol. The 0 h sample is taken immediately after addition of the substance. This corresponds to the 100% value in the stability calculation. Ideally, the concentration employed should be retrieved here. The samples can be frozen at −20° C. • 0 h • 6 h • 24 h • 48 h
The negative control used is SF without substance. The positive control used is SF with 1 μM of substance. This corresponds to the 0 h value and thus 100% stability.
The concentrations measured (ng/ml) are plotted against the time in a graph (GraphPad Prism®). The percentage stability of the substance is determined here. The 100% value used is the initial value in the SF at time 0 h. The data are stored in eLabBio under the respective experiment number and reported in the MSR database (as percent stability after the corresponding incubation times).

[3] = biological target: recombinant human renin (Homo sapiens (Human), UniProt P00797); test: In-vitro fluorescence assay for identification of renin-inhibitory activity; format: biochemical; conditions: recombinant human renin 10 nM, pH 7.2; read-out: Renin selectivity IC50
Outline: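 Recombinant human renin (10 nM) pre-incubated 15 min at RT with serially diluted compound in 50 mM Mops pH 7.2, 1.5% DMSO, 0.1% Igepal, 0.5% BSA; Edans/Dabcyl FRET peptide (5 µM final) added, 60 min at 37 °C; cleavage read as fluorescence increase (ex 340/em 495 nm) against no-compound wells.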

Sequence of cathepsin D isolated from the human liver (P07339 65-161): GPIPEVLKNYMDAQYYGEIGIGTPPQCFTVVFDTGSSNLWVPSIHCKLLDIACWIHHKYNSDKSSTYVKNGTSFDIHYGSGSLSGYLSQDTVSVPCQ
Sequence of cathepsin D isolated from the human liver (P07339 169-412): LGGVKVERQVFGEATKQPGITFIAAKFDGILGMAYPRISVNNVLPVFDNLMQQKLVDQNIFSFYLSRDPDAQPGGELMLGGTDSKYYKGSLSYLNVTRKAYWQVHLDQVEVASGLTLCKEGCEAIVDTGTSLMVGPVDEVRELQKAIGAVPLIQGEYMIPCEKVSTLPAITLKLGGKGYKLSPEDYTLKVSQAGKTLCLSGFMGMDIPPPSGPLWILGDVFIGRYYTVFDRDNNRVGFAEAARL
Sequence of recombinant human renin (P00797 67-406): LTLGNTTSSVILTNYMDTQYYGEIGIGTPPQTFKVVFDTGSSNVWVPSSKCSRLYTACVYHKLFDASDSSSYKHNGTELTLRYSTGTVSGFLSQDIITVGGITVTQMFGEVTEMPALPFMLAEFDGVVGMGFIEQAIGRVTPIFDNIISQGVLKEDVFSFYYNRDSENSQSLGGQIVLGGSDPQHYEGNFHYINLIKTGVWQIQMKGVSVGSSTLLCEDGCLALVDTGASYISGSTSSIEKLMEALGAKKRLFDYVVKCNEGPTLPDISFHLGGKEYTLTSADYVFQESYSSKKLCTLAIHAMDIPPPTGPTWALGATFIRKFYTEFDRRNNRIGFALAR

With `CCC(CC)NC(=O)[C@@H](NC(=O)C[C@H](N)[C@H](Cc1ccccc1)NC(=O)[C@@H](NC(=O)[C@H](CC(C)C)NC(=O)CC(C)C)C(C)C)[C@@H](C)CC` [Compound 39, N-[(1S,2S)-1-(1-Ethylpropylcarbamoyl)-2-methylbutyl]-(S)-3-(S)-amino-4-{(S)-3-methyl-2-[(S)-4-methyl-2-(3-methylbutyryl-amino)pentanoylamino]butyrylamino}-5-phenylpentanamide] the IC50 [1] was 9.9 nM, the “Stability in synovial fluid” value [2] was “stable” and the IC50 [3] was > 30000 nM.
